# PMC12645083, “Microwave‐Enhanced Synthesis of 2‐Styrylquinoline‐4‐Carboxamides With Promising Anti‐Lymphoma Activity” (Archiv Der Pharmazie, 2025)
# Where two headings read alike, the source gives them in different places.
# How the values were obtained:
# [1] = system: panel of five lymphoma cell lines (VL51, TOLEDO, SU-DHL-18, SU-DHL-1, KM-H2); test: Antiproliferative activity, range over the panel of five lymphoma cell lines; type: cell-based, human; settings: range or statement over the lymphoma cell lines, 72 h; for IC50: Homo sapiens
# Description: Based on these interesting results on hematological malignancies‐derived cell lines, styrylquinolines 4i, 4n, 4s and 4ah were further tested for their antiproliferative activity on a panel of five lymphoma cell lines (VL51, splenic B‐cell lymphoma; TOLEDO, diffuse large B‐cell lymphoma, non‐Hodgkin lymphoma; SU‐DHL‐18, lymph node lymphoma; SU‐DHL‐1, histiocytic large cell lymphoma; KM‐H2, Hodgkin lymphoma) (Table 3). In this case, a different behaviour was observed.
# (§1) To test the newly synthesized compounds, various human cell lines were employed. HD‐MB03 cells were purchased from DSMZ (Braunschweig, Germany), while A549, MDA‐MB‐231, RPMI‐8420, SU‐DHL‐8, TOLEDO, VL51, SU‐DHL‐1, SU‐DHL‐18, and KM‐H2 were obtained from ATCC (Manassas, VA, USA). Cells were cultured in DMEM (for MDA‐MB‐231 and A549) or RPMI‐1640 (for RPMI‐8420, SU‐DHL‐8, TOLEDO, VL51, SU‐DHL‐1, SU‐DHL‐18, KM‐H2, and HD‐MB03) media (Gibco, Milan, Italy). Both media were supplemented with 115 units/mL penicillin G (Gibco, Milan, Italy), 115 µg/mL streptomycin (Invitrogen, Milan, Italy), and 10% fetal bovine serum (Invitrogen, Milan, Italy). Peripheral blood mononuclear cells (PBMCs) were isolated from healthy donors as previously described. For cytotoxicity assays, PBMCs were resuspended at 5 × 10⁵ cells/mL in complete RPMI medium with or without 2.5 µg/mL phytohemagglutinin (PHA) (Irvine Scientific) to stimulate T‐cell activation and proliferation. All cell lines were maintained at 37°C in a humidified atmosphere containing 5% CO₂. All compounds were dissolved in DMSO at a 10 mM stock concentration. For dose–response assays, cells were seeded in 96‐well plates at densities optimized for each cell line: HD‐MB03 at 10,000 cells/well, A549 at 4000 cells/well, and MDA‐MB‐231 at 7000 cells/well. All other cell lines were seeded at 20,000 cells/well in a final volume of 100 µL per well. After 24 h, cells were treated with a 6‐point serial dilution of compounds starting from 10 µM, in triplicate for statistical analysis. Seventy‐2 h posttreatment, 10 µL of resazurin solution (100 µg/mL) was added to each well, and cells were incubated for an additional 3–6 h. Fluorescence was measured using a Spark 10 M microplate reader (Tecan Group Ltd., Männedorf, Switzerland) with excitation at 535 nm and emission at 600 nm. The IC₅₀ was defined as the concentration of compound required to inhibit cell proliferation by 50% compared to cells treated with the highest DMSO concentration.
# [2] = system: peripheral blood mononuclear cells (PBMCs); test: Antiproliferative/cytotoxicity assay on PBMCs from a healthy donor; type: cell-based; settings: Homo sapiens, PBMC
# Procedure: To assess the potential toxicity of the most promising quinoline derivatives 4i, 4n, 4s, and 4ah, an antiproliferative assay was performed, using peripheral blood mononuclear cells (PBMCs) isolated from a healthy donor.
# as §1
# To test the newly synthesized compounds, various human cell lines were employed. HD-MB03 cells were purchased from DSMZ (Braunschweig, Germany), while A549, MDA-MB-231, RPMI-8420, SU-DHL-8, TOLEDO, VL51, SU-DHL-1, SU-DHL-18, and KM-H2 were obtained from ATCC (Manassas, VA, USA). Cells were cultured in DMEM (for MDA-MB-231 and A549) or RPMI-1640 (for RPMI-8420, SU-DHL-8, TOLEDO, VL51, SU-DHL-1, SU-DHL-18, KM-H2, and HD-MB03) media (Gibco, Milan, Italy). Both media were supplemented with 115 units/mL penicillin G (Gibco, Milan, Italy), 115 µg/mL streptomycin (Invitrogen, Milan, Italy), and 10% fetal bovine serum (Invitrogen, Milan, Italy). Peripheral blood mononuclear cells (PBMCs) were isolated from healthy donors as previously described. ^[1] For cytotoxicity assays, PBMCs were resuspended at 5 × 10⁵ cells/mL in complete RPMI medium with or without 2.5 µg/mL phytohemagglutinin (PHA) (Irvine Scientific) to stimulate T cell activation and proliferation. All cell lines were maintained at 37 °C in a humidified atmosphere containing 5% CO₂. All compounds were dissolved in DMSO at a 10 mM stock concentration. For dose–response assays, cells were seeded in 96-well plates at densities optimized for each cell line: HD-MB03 at 10,000 cells/well, A549 at 4,000 cells/well, and MDA-MB-231 at 7,000 cells/well. All other cell lines were seeded at 20,000 cells/well in a final volume of 100 µL per well. After 24 hours, cells were treated with a 6-point serial dilution of compounds starting from 10 µM, in triplicate for statistical analysis. Seventy-two hours post-treatment, 10 µL of resazurin solution (100 µg/mL) was added to each well, and cells were incubated for an additional 3–6 hours. […]
# [3] = PBMCs stimulated with 2.5 µg/mL PHA, read-out: IC50 phytohemagglutinin-stimulated PBMCs
# [4] = resting PBMCs from a healthy donor, read-out: IC50 resting PBMCs
Structure (SMILES),IC50 [1],"IC50 [2, 3]","IC50 [2, 4]","IC50 values, range over lymphoma cell lines [1]"
"O=C(Nc1ccc([N+](=O)[O-])cc1)c1cc(/C=C/c2ccccc2)nc2ccccc12 [4i, (E)-N-(4-nitrophenyl)-2-styrylquinoline-4-carboxamide]",1.03 to 7.6 µM,> 10 µM,> 10 µM,
"COc1cc(/C=C/c2cc(C(=O)Nc3ccc([N+](=O)[O-])cc3)c3ccccc3n2)cc(OC)c1OC [4s, (E)-N-(4-nitrophenyl)-2-(3,4,5-trimethoxystyryl)quinoline-4-carboxamide]",,> 10 µM,> 10 µM,devoid of antiproliferative activity
"O=C(Nc1ccc(Cl)cc1)c1cc(/C=C/c2ccccc2[N+](=O)[O-])nc2ccccc12 [4ah, (E)-N-(4-chlorophenyl)-2-(2-nitrostyryl)quinoline-4-carboxamide]",3.79 to 6.74 µM,> 10 µM,> 10 µM,
"COc1cc(/C=C/c2cc(C(=O)Nc3c(C)cccc3C)c3ccccc3n2)cc(OC)c1OC [4n, (E)-N-(2,6-dimethylphenyl)-2-(3,4,5-trimethoxystyryl)quinoline-4-carboxamide]",,> 10 µM,> 10 µM,devoid of antiproliferative activity
